The record followed here is patent US20230043394A1, “METHODS FOR DETECTION OF PATHOGENIC ANTIPHOSPHOLIPID ANTIBODIES AND FOR IDENTIFICATION OF INHIBITORS” (UNIVERSITÄTSMEDIZIN DER JOHANNES GUTENBERG-UNIVERSITÄT MAINZ, priority 2019, published 2023).

In assay [1] the test system is acidic sphingomyelinase (ASM). As to the kind of experiment: ASM activity in CD115+ spleen monocytes stimulated with aPL HLSB. The assay is classed as cell-based, mouse. Particulars: EPCR^C/S monocytes, LBPA 10 μM. How it is done:
(A) WT CD115+ spleen monocyte induction of ASM activity after 15 minutes aPL HLSB stimulation with the indicated inhibitors. (B) LBPA (10 μM) loading of EPCR^C/S cells enabled ASM activation in CD115+ monocytes stimulated with HLSB.
ASM requires LBPA for activity (33). […] Thrombin stimulation to induce ASM surface expression was sufficient to trigger ASM activation that was blocked by extracellular addition of αEPCR-LBPA 1682 (FIG. 6C). TfpiΔK1 cells expressed LBPA-loaded EPCR (FIG. 3D), but lack surface FXa to trigger thrombin generation. […] In turn, ASM modification of surface lipid modification is required for endosomal trafficking and signaling of EPCR-bound aPL.

In assay [2] the test system is EPCR^C/S monocytes. The assay is described as follows: Lipid supplementation and aPL signalling in EPCR^C/S monocytes. Format: cell-based, mouse. Particulars: for aPL signaling in EPCR^C/S monocytes after adding LBPA isomers: 10 μM. The text has this: (§1) (A) Effect of aPL HL5B, aPL HL7G, and αEPCR antibodies on EPCR-dependent aPC generation on murine microvascular endothelial cells. (B) Effect of anti-mouse EPCR antibodies 1682 and 1650 on Tnfα mRNA induction by aPL HL5B and HL7G; mean±SD, n=6. * p<0.0001; one-way ANOVA, Dunnett multiple-comparison. (C) Effect of αEPCR on aPL HL5B and HL7G internalization in CD115+ splenocytes. Bar=5 μm. (D) Flow cytometry detection of FXa and EPCR on CD115+ spleen monocytes isolated from indicated mouse strains. (E) Effect of pre-treatment with 10 μM LBPA for 10 min on surface binding of αEPCR 1682 and αLBPA 6C4 on indicated monocytes; mean±SD, n=6. * p<0.003; multiple t-tests. (F) Competition of αEPCR 1650 and 1682 with binding of FITC-labelled anti-LBPA antibody 6C4 to mouse CD115+ splenocytes. (G) Competition of αLBPA 6C4 with binding of αEPCR 1682 to mouse monocytes. (H) Effect of LBPA, cardiolipin (CL), and phosphatidylserine (PS) (10 μM) on aPL HLSB signalling in EPCR^C/S monocytes. Induction of TNF after 3 hours is shown; mean±SD, n=6. (I) LBPA loading of purified mouse or human sEPCR evidenced by faster mobility on native gels. (J) Surface plasmon resonance analysis of aPL HLSB binding to purified human sEPCR or sEPCR-LBPA. The affinity calculation was based on a monovalent binding model because no cooperative binding was evident.
(A) TNFα mRNA induction after 2 hours by HLSB is prevented in Alix-deficient trophoblast cells; mean±SD, n=6. * p<0.0001; t-test following Shapiro-Wilk test for normal distribution. (B, C) Proximity ligation assays (PLA) for ASM and EPCR on scrambled control JARs or ALIX−/− cells after 10 minutes of stimulation with HLSB (B) or thrombin (C) with or without LBPA loading. Bar=25 μm. (D) aPL internalization in ALIX deficient JAR cells and signalling in EPCR^C/S monocytes (E) was restored by adding 10 μM LBPA (S,R) but not by other phospholipids. (F) Pregnancy loss was scored at day 15.5 p.c. after injection of aPL HLSB on days 8 and 12. * p<0.02; one-way ANOVA, Dunnett multiple-comparison test. […]

A further assay concerns EPCR^C/S pDC. The assay is described as follows: Mouse pDC and B cell co-culture with R848 and aPL HL5B, anti-cardiolipin titers. The assay is classed as cell-based. Particulars: co-cultures with EPCR^C/S pDC. The protocol: (§2) (A) Gbp2 mRNA induction after 1 hour stimulation with HL5B, HL7G, or LPS (100 ng/ml) in EPCR^C/S or WT monocytes with or without addition of LBPA. (B) WT monocytes were stimulated for 1 hour with IgG isolated from MRL/lpr lupus-prone or control MRL mice in the presence of the indicated antibodies to EPCR. (C) Human monocyte-derived DC were co-cultured with B cells in the presence of TLR7/8 agonist R848 and aPL HL5B with the indicated antibodies to human EPCR. Anti-cardiolipin titers were determined after 10 days. (D-F) Co-cultures of isolated spleen plasmacytoid dendritic cells (pDC) and B cells from the indicated mouse strains were co-cultured with Tlr7 agonist R848 and aPL HL5B for 10 days, followed by determination of anti-cardiolipin titers. IFNR^−/−, type I interferon receptor deficient mice.
Supporting this conclusion, anti-cardiolipin antibody production was absent when mouse pDC, but not B cells, were isolated from EPCR^C/S mice (FIG. 9D). Addition of LBPA or interferon a restored the expansion of anti-cardiolipin producing B cells in co-cultures with aPL signaling-deficient EPCR^C/S pDC (FIG. 9D). In contrast, cells deficient in LRP8, the receptor for β2GPI, produced anti-cardiolipin antibodies normally in response to co-stimulation of aPL and Tlr7 agonist (FIG. 9E).

Another assay has as its system human trophoblast cells. As to the kind of experiment: TNFα mRNA induction by HLSB in ALIX knock-down trophoblast cells. Format: cell-based. Particulars: extracellular LBPA supplemented. The protocol: (§3) (A) TNFα mRNA induction after 2 hours by HLSB is prevented in Alix-deficient trophoblast cells; mean±SD, n=6. * p<0.0001; t-test following Shapiro-Wilk test for normal distribution. (B, C) Proximity ligation assays (PLA) for ASM and EPCR on scrambled control JARs or ALIX−/− cells after 10 minutes of stimulation with HLSB (B) or thrombin (C) with or without LBPA loading. Bar=25 μm. (D) aPL internalization in ALIX deficient JAR cells and signalling in EPCR^C/S monocytes (E) was restored by adding 10 μM LBPA (S,R) but not by other phospholipids. (F) Pregnancy loss was scored at day 15.5 p.c. after injection of aPL HLSB on days 8 and 12. * p<0.02; one-way ANOVA, Dunnett multiple-comparison test. (G) Schematic representation of aPL signalling leading to thrombosis or pregnancy complications.
The importance of this pathway in human trophoblast cells by knock-down of ALIX (FIG. 8A) was evaluated, which is required for normal lysosomal functioning. ALIX knock-down diminished LBPA cell surface presentation, but not EPCR expression (FIG. 8B) and abolished aPL-induced, but not TNFα-induced proinflammatory effects.

The target of another assay is T1, LBPA-loaded EPCR (Mus musculus, UniProt Q64695, C242S).
T1 construct: endogenous in cells; host or cells: mouse CD115+ spleen monocytes; murine microvascular endothelial cells
T1 sequence (Q64695 18-242 C242S): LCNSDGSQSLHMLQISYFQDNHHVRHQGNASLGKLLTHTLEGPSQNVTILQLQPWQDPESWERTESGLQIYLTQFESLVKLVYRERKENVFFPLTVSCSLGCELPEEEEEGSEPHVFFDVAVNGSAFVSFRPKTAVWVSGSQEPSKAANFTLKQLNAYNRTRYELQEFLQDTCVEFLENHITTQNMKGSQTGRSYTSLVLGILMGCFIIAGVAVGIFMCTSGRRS
The assay is described as follows: Flow cytometry surface staining of monocytes with αEPCR 1682 and αLBPA 6C4. The assay is classed as binding. Conditions: LBPA added to culture medium, 10 μM, 10 min.
Description: as §1, with “evident. […]” for “evident.”
Background: A flow cytometer gives signals particle by particle.

For assay [3], the system named is EPCR^C/S monocytes. As to the kind of experiment: Gbp2 mRNA induction by aPL in EPCR^C/S monocytes. Format: cell-based, mouse. Conditions: 1 hour stimulation with aPL. How it is done:
as §2
Further, it was investigated whether the identified target for lipid-reactive aPL contributes to the development of autoimmunity. Upregulation of interferon responses in circulating immune cells are linked to the development of APS (38, 39). […] In addition, IgG isolated from MRL/lpr lupus erythematosus mice, but not MRL control mice induced interferon responses dependent on EPCR-LPBA in monocytes (FIG. 9B).

Assay [4] deals with ALIX^−/− trophoblast cells. The assay is described as follows: aPL HL5B binding to ALIX-deficient trophoblast (JAR) cells after adding phospholipids. The assay is classed as cell-based, human. Particulars: 10 μM lipid added. The protocol:
as §3
Human ALIX^−/− trophoblast cells and murine EPCR^C/S monocytes provided tools to compare the species conservation of lipid presentation by EPCR. Only addition of S/R 18:1 LBPA and R/R 18:1 LBPA, but not S/S 18:1 LBPA or semi-S/R LBPA restored aPL HL5B binding to ALIX^−/− trophoblast cells (FIG. 7D) or signaling in EPCR^C/S monocytes (FIG. 7E). Thus, human and mouse EPCR present LBPA with the same selectivity, providing an explanation for the remarkable species cross-reactivity of pathogenic aPL.

Assay [5] has as its system acidic sphingomyelinase (ASM). The assay is described as follows: ASM activity in unstimulated cell lysates after addition of sEPCR-LBPA. The assay is classed as biochemical. How it is done:
(A) aPL-mediated TF activation, PS exposure measured by annexin 5 staining, ROS production and TNFα induction as well as (B) aPL internalization in MM1 cells was blocked by sphingomyelinase inhibitor desipramine. Bar=5 μm. (C) aPL-induced ASM activity in MM1 cells is blocked by inhibitors of FXa, thrombin, and PAR1 cleavage. (D) Live cell imaging of surface ASM exposure in MM1 cells after 30 minutes of stimulation with Fab′2 aPL HLSB. Bar=5 μm. (E) ASM activity in unstimulated cell lysates after addition of sEPCR-LBPA (2.504) is blocked by αEPCR 1682. For all ASM activity assays: mean±SD, n=3. * p<0.0003; one-way ANOVA, Dunnett multiple-comparison test. […] (G, H) Thrombosis induction by dual reactive aPL HL7G in the indicated mouse strains or WT mice in presence of indicated αEPCR. (F-H) Quantification of thrombus size 3 hours after aPL injection; median, interquartile range, and range; n=6-11; * p <0.004; one-way ANOVA, Dunnett multiple-comparison test compared to αEPCR 1650. (I, J) Thrombosis induction by aPL HLSB (I) or IgG isolated from age-matched 16 weeks old lupus-prone MRL/lpr and MRL control mice (J) in the indicated mouse strains. Quantification of thrombus size 3 hours after aPL injection; median, interquartile range, and range; (I) n=6-10; * p=0.001; unpaired t-test. (J) n=5; * p=0.0025; two-way ANOVA, Sidak's multiple comparisons test.
ASM requires LBPA for activity (33). […]

On to lysobisphosphatidic acid [LBPA], for which the “ASM activation by aPL after extracellular addition of LBPA” value in assay [1] is given as “restored ASM activation”. Moreover, the “aPL pro-inflammatory signaling of EPCR^C/S cells after lipid supplementation” value in the assay with EPCR^C/S monocytes [2] (10 μM lipid, TNF induction after 3 hours) is “restored aPL pro-inflammatory signaling”. In the assay with EPCR^C/S pDC, the “expansion of anti-cardiolipin producing B cells” value is recorded as “restored”. Further, the “aPL signaling in ALIX knock-down trophoblast cells” value with human trophoblast cells is reported as “restored aPL signaling”. Besides, the “cell surface αLBPA 6C4 and αEPCR 1682 staining of EPCR^C/S cells” value on LBPA-loaded EPCR is “restored”. In addition, the “interferon responses (GBP2) in EPCR^C/S monocytes” value with EPCR^C/S monocytes [3] was “restored interferon responses”.

For the molecule S/R 18:1 LBPA, in the assay with EPCR^C/S monocytes [2], the “aPL signaling in EPCR^C/S monocytes after adding LBPA isomers” value is given as “restored”. In addition, in assay [4], the “aPL HL5B binding to ALIX^−/− trophoblast cells” value is listed as “restored”.

Regarding R/R 18:1 LBPA, the “aPL signaling in EPCR^C/S monocytes after adding LBPA isomers” value with EPCR^C/S monocytes [2] is recorded as “restored”. Moreover, the “aPL HL5B binding to ALIX^−/− trophoblast cells” value in assay [4] was “restored”.

B1: EPCR-LBPA: purified soluble EPCR loaded with LBPA by lipid exchange (protein, UniProt Q9UNN8 18-210, looked up)
extracellular domain: SQDASDGLQRLHMLQISYFRDPYHVWYQGNASLGGHLTHVLEGPDTNTTIIQLQPLQEPESWARTQSGLQSYLLQFHGLVRLVHQERTLAFPLTIRCFLGCELPPEGSRAHVFFEVAVNGSSFVSFRPERALWQADTQVTSGVVTFTLQQLNAYNRTRYELREFLEDTCVQYVQKHISAENTKGSQTSRSYTS
modifications: extracellular domain loaded with LBPA lipid
notes: purified soluble EPCR loaded with LBPA by lipid exchange
In the case of B1, in assay [5], the “induction of ASM activity in cell lysates of unstimulated cells” value was “efficiently induced ASM activity”.
